Test results as given in PMC12030062, “From In Vitro Cytotoxicity to In Vivo Zebrafish Assays: A Study on 3,3-Dichloro β-, γ- and δ-Lactams and Their Biological Activity Profiles” (Pharmaceuticals, 2025).

How the values were obtained:
[1] = tested on: human erythrocytes; assay: Hemolysis assay with human erythrocytes; type: cell-based; settings: from 10 to 80 µg/mL
Protocol: (§1) In this context, non-hemolytic compounds are essential, as they enhance the safety and efficacy of lactam-based drugs by reducing adverse effects while maintaining their antitumor activity. In accordance with EU regulations (ISO 10993-4), the assessment of the biological compatibility of new compounds that may come into contact with the blood necessitates in vitro hemocompatibility evaluations. In this study, the extent of hemolysis induced by the different compounds was assessed by incubating them with an erythrocyte suspension. The hemolytic response of compounds 1–10 was evaluated at two concentrations (10 and 80 µg/mL), the results of which are presented in Figure 3.
(§2) • In Vitro Assay Using Human Erythrocytes • - Acquisition and Extraction of the Erythrocytes Human blood samples were obtained from the Banc de Sang i Teixits de Barcelona (Spain) from the Catalan Department of Health. Blood was deposited in tubes with the anticoagulant EDTA-K3. Blood samples were centrifuged at 3000 rpm and 4 °C for 10 min (Megafuge 2.0 R. Heraeus Instruments, Hanau, Germany) to induce sedimentation. Plasma was extracted with a Pasteur pipette. Next, the residual pellet was washed with PBS at pH 7.4. This procedure was repeated three times to remove residual leukocytes and platelets and to concentrate the erythrocytes. Following the last wash, the erythrocyte suspension was diluted (1:1) in PBS at pH 7.4 to obtain a suitable erythrocyte suspension (cell density of 8 × 10^9 cell/mL). • - Hemolysis Assay The hemolysis assay determined the capability of different compounds to induce the hemolysis of the erythrocyte membrane. Stock solutions of each compound at 1 mg/mL in PBS at pH 7.4 were prepared. Different volumes (10–80 μL) were placed in polystyrene tubes, and an aliquot of 25 µL of the erythrocyte suspensions was added to each tube. The final volume was 1 mL. The tubes were incubated at room temperature under rotatory conditions. Then, the tubes were centrifuged at 10,000 rpm for 5 min. The supernatants’ absorbance at 540 nm (Shimadzu UV-160A, Shimadzu, Duisburg, Germany) was compared with that of the positive (erythrocytes hemolyzed with distilled water) and negative (erythrocyte suspension in PBS at pH 7.4) controls. The degree of hemolysis was determined using the following equation: Hemolysis (%) = 100 × (Abs − Abs0)/(Abs100 − Abs0) where Abs, Abs0, and Abs100 are the absorbance of the test samples, of the suspension treated with isotonic phosphate–buffered saline (PBS), and of the suspension of complete hemolysis treated with distilled water, respectively. • In Vitro Essay Using Cell Cultures The murine Swiss albino fibroblasts (3T3) and the squamous cell carcinoma (A431) cell lines were obtained from Celltec UB. Cells were grown in DMEM medium (4.5 g/L glucose) supplemented with 10% (v/v) FBS, 2 mM L-glutamine, 100 U/mL penicillin, and 100 µg/mL streptomycin at 37 °C with 5% CO2. Cells were routinely cultured in 75 cm^2 culture flasks and were trypsinized using trypsin–EDTA when the cells reached approximately 80% confluence. The trypan blue assay, which allows for the direct identification and enumeration of the live (unstained) and dead (blue) cells in the cell population, was used to evaluate the viability of the cells in the cell suspension obtained. • - Cell Viability Assays Cell lines of 3T3 (1 × 10^5 cells/mL) and A431 (5 × 10^4 cells/mL) were grown at defined densities in the 60 central wells of a 96-well plate. The cells were incubated for 24 h in 5% CO2 at 37 °C. Then, the spent medium was removed, and the cells were incubated for 24 h, with their corresponding compound solutions (1 mg/mL) previously diluted in a minimum amount of DMF (dimethylformamide) and then in DMEM medium supplemented with 5% FBS (100 µL) at the required concentration range (80 or 250 µg/mL). […]

[2] = Hemolysis assay with human erythrocytes; type: cell-based; settings: human, washed human erythrocyte suspension, pH 7.4; 10 µg/mL; read-out: degree of hemolysis
Protocol: as §1, §2

CC(C)(C)N1C(=O)C(Cl)(Cl)C1c1ccccc1 (centres unmarked) [Compound 1]
change of hemolytic response as concentration increased [1]: remained stable | hemolysis at 10 µg/mL [2]: 0.01%
